Assay [1] relates to A375 melanoma cells. Kind of assay: Cell proliferation, fluorescent Cell Titer Blue Assay (Example 1). Type of assay: cell-based. The conditions noted are these: Homo sapiens, A-375; 48 hours. The essentials: (§1)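 Cells seeded at 25,000/well, cultured overnight, then treated with compound across a concentration range for 48 hours. Proliferation read by fluorescent Cell Titer Blue; repeated in 3 separate experiments.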
Background: Resazurin is reduced to fluorescent resorufin, in cell work by metabolically active cells.

Assay [2] concerns HeLa cervical carcinoma cells. Described as above. Type of assay: cell-based. As to conditions: Homo sapiens, 48 hours. The essentials:
as §1

In assay [3] the test system is Jurkat T-cell leukemia cells. The description is as above. Type of assay: cell-based. As to conditions: Homo sapiens, 48 hours. The essentials:
as §1

The test system of assay [4] is RPMI7951 melanoma cells. The assay is described as above. In kind it is cell-based. The conditions noted are these: Homo sapiens, RPMI-7951; 48 hours. In short, it runs like this: as §1
Assay [5] deals with ERK2 wild type (WT) (Rattus norvegicus (Rat), UniProt P63086). Nature of the assay: Fluorescence quenching (FQ) binding affinity. The conditions noted are these: 1 nM to 20 μM test compound.
In assay [6] the target is ERK2 L114A (Rattus norvegicus (Rat), UniProt P63086, L114A). Nature of the assay: Fluorescence quenching (FQ) binding affinity. As to conditions: read-out: KD L114A (Site 2).
The target in assay [7] is ERK2 R275A (Rattus norvegicus (Rat), UniProt P63086, R275A). Nature of the assay: Fluorescence quenching (FQ) binding affinity. The conditions noted are these: read-out: KD R275A (Site 3).
Assay [8] concerns the target ERK2 L232A (Rattus norvegicus (Rat), UniProt P63086, L232A). Kind of assay: Fluorescence quenching (FQ) binding affinity. The conditions noted are these: read-out: KD L232A (Site 5).
For assay [9], the target named is ERK2 L235A (Rattus norvegicus (Rat), UniProt P63086, L235A). Nature of the assay: Fluorescence quenching (FQ) binding affinity. The conditions noted are these: read-out: KD L235A (Site 5).
Assay [10] relates to MEK1-induced AP-1 promoter activity. Nature of the assay: AP-1 promoter luciferase assay, HeLa cells expressing active MEK1 mutant. As to conditions: Homo sapiens, 4 hours, read-out: IC50 inhibition of MEK1-induced AP-1 promoter activity. In kind it is cell-based. In short, it runs like this: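 HeLa transfected with AP-1 luciferase reporter; EGF-stimulated set pretreated 20 min with compound then EGF 25 ng/mL for 4.5 hr, MEK1 set co-transfected with constitutively active MEK1 mutant and compound-treated for final 4 hours. Luciferase normalized to protein, expressed relative to EGF-only or active MEK1-only; mean of three experiments.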

Assay [11] deals with ERK1/2-mediated phosphorylation of Elk-1. Nature of the assay: Immunoblot of ERK1/2-mediated Elk-1 phosphorylation in EGF treated HeLa cells. In kind it is cell-based. As to conditions: 100 μM, EGF 25 ng/mL 10 min. (A western blot detects proteins with antibodies after separation by electrophoresis.)
Protocol: (b) HeLa cells were pre-incubated for 30 min with indicated compounds (100 μM) followed by treatment with EGF (25 ng/mL) for 10 min. to activate ERK1/2 signaling. Lysates were immunoblotted for phosphorylated Elk1 (pElk1 S383) or active ERK1/2 (pERK1/2). […] The MEK1/2 inhibitor U0126 (10 μM) was used to block all ERK1/2 signaling and α-tubulin expression was used as a protein loading control.
Proteins were separated by SDS-PAGE, analyzed by immunoblotting, and detected using enhanced chemiluminescence (ECL, GE Healthcare, United Kingdom).

A value given as a limit tells only on which side of the number the result lay.

Sequence of ERK2 R275A (P63086 whole entry R275A): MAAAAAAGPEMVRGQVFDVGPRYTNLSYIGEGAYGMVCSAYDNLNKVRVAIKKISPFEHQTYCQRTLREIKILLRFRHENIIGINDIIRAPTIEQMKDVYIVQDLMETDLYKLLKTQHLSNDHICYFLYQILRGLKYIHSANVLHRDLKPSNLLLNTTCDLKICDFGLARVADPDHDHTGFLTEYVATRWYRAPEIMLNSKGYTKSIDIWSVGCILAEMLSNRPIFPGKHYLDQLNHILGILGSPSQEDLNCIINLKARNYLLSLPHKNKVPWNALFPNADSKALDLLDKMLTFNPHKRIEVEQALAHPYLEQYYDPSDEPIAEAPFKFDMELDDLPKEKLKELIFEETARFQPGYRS
Sequence of ERK2 L232A (P63086 whole entry L232A): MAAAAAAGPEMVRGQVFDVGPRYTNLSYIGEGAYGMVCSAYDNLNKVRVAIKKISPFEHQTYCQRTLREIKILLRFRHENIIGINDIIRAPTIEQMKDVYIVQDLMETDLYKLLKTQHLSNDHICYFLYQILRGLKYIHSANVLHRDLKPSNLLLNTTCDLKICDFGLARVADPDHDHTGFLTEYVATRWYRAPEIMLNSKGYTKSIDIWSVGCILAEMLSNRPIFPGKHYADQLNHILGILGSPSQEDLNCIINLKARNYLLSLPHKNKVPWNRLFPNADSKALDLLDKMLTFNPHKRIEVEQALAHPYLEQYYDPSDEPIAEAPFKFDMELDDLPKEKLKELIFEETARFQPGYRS
Sequence of ERK2 L114A (P63086 whole entry L114A): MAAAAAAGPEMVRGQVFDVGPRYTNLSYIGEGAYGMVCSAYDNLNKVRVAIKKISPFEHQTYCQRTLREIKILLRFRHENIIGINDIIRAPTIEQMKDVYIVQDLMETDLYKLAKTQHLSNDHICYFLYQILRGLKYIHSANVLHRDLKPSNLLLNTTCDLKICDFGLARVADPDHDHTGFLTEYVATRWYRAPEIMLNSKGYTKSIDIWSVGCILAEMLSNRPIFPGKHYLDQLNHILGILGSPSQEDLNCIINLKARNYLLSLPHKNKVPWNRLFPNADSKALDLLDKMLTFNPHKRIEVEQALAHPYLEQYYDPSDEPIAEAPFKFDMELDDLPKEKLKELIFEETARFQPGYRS
Sequence of ERK2 wild type (WT) (P63086 whole entry): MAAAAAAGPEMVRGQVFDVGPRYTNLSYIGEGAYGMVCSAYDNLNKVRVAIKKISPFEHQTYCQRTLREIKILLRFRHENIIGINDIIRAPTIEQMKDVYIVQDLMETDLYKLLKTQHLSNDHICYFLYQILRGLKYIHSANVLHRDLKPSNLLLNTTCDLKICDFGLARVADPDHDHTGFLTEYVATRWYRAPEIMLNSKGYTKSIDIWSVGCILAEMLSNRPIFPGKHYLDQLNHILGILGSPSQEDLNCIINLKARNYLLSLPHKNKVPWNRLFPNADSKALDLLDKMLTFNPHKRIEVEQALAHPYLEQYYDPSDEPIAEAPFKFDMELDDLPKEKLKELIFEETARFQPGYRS
Sequence of ERK2 L235A (P63086 whole entry L235A): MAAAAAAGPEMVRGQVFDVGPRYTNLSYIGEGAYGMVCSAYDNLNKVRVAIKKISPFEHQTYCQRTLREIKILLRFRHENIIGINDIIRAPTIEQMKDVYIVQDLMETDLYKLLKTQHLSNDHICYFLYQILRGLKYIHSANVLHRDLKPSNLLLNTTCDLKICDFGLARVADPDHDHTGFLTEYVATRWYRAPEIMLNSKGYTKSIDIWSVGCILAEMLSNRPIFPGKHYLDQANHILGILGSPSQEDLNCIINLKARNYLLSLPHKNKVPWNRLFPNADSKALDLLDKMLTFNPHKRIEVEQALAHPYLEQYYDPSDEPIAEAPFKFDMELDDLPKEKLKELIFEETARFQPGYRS

`O=S1(=O)C=CC(OS(=O)(=O)c2ccccc2)C1` (centres unmarked) [SF-3-026]: the GI50 is 7800 nM in assay [1], 32000 nM in assay [2], over 50000 nM in assay [3] and 5100 nM in assay [4]. The Kd in assay [5] was determined as 130 ± 20 nM; in assay [6], 27 ± 10 nM; in [7], 240 nM; in [8], 130 nM; in assay [9], 90 ± 20 nM. The IC50 in assay [10] is about 40000 nM. Further, in assay [11], the “inhibition of ERK1/2-mediated Elk-1 phosphorylation” value is “inhibit ERK1/2-mediated phosphorylation”.

In general, GI50 refers to the concentration giving 50% growth inhibition. In general, Kd refers to the equilibrium constant for the complex coming apart. As usually defined, the IC50 is the concentration at which inhibition is half-maximal.

The record behind these values is patent US9115122B2, “Non-ATP dependent inhibitors of extracellular signal-regulated kinase (ERK)” (UNIVERSITY OF MARYLAND, BALTIMORE, priority 2012, dated 2015).
